Laboratory results published in US20260116884A1, “PROTAC CHIMERIC COMPOUND, PREPARATION METHOD THEREFOR AND USE THEREOF” (HANGZHOU ZHONGMEIHUADONG PHARMACEUTICAL CO., LTD., priority 2022, published 2026).
Where two headings read alike, the source gives them in different places.

Assays:
[1] = tested on: IL2 activation in human PBMC; test: IL2 activity assay (ELISA) in human PBMC; assay type: cell-based; conditions: CD3/CD28 antibody, 24 h
Experimental: The compound was diluted with DMSO in a dilution plate, with a maximum starting concentration of 10 μM, 8 concentration gradient points (3-fold dilution), and then added to the 96-well plate along with the addition of 5 µg/ml CD28 antibody. Incubation was performed for 24 h. • (3) The ELISA plate was washed twice with PBS, and an ELISA dilution was added at 100 µl/well. Then 100 μl of the standard and the incubated samples obtained in step 2 were added separately, and incubated for 2 h at room temperature. • (4) Each well was washed 3 times by adding with 400 μl washing buffer per well, and was finally blotted to dryness with a clean absorbent paper. • (5) 200 μl of the IL2 conjugate was added per well, covered with a fresh tape, and incubated for 2 h at room temperature. Step (4) was repeated. • (6) 200 μl of the substrate was added per well under the protection from light. The plate was incubated at room temperature for 20 min. • (7) 50 μL of a stop solution was added per well. The color of the wells should be from blue to yellow. Signals at […] were read by a microplate reader, and the signal intensity was used to characterize the activity level of IL2. EC50 values were obtained by fitting using the Prism software.

human HPK1 [2] = target: T1, human HPK1 (Homo sapiens, UniProt Q92918); test: Assay of in vitro HPK1 enzymatic activity (ADP-Glo); assay type: biochemical; conditions: 7 nM kinase, 20 uM ATP
T1 sequence (Q92918 whole entry): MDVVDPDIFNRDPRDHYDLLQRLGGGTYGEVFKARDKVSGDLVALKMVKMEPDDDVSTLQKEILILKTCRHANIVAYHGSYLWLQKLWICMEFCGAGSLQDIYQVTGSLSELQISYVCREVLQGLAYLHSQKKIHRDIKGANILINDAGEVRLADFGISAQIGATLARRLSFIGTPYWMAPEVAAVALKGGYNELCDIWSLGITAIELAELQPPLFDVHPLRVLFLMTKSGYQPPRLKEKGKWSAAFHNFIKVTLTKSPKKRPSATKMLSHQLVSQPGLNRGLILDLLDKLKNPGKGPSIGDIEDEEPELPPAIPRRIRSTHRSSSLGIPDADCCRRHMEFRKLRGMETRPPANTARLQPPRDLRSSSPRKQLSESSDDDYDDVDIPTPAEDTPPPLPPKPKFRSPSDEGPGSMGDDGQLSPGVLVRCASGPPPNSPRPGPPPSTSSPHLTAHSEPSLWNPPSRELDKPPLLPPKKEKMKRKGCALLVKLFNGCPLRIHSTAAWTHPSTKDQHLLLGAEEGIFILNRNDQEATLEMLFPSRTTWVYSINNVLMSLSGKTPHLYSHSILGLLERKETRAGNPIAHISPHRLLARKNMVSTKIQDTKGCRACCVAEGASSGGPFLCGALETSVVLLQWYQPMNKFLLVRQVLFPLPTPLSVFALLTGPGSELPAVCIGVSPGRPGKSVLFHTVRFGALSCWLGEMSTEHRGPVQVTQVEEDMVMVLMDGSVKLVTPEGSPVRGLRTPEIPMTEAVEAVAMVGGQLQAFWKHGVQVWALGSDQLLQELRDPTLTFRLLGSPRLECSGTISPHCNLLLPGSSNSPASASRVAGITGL
Experimental: Compounds were evaluated for their ability to inhibit human HPK1 by IC50 determination using the ADP-Glo method to measure the kinase activity.
Buffer conditions of the enzyme: 50 mM Hepes (pH 7.5), 10 mM MgCl2, 1 mM EGTA, 0.01% Brij35, 2 mM DTT.
Preparation of the Kinase and substrate mixture: the working concentration of the kinase in the HPK1 reaction solution was 7 nM and the working concentration of ATP was 20 uM.
The compound was diluted with DMSO in a dilution plate, with a maximum starting concentration of 1 uM and 10 concentration gradient points (4-fold dilution).
Each of the above 10 concentration gradient points of the compound was then diluted 50-fold into the kinase reaction buffer and shaken on a shaker for 20 min. The kinase was prepared in an enzyme reaction buffer and 2 μl of the HPK1 kinase was added per well of the reaction plate at a HPK1 kinase concentration of 7 nM.
1 μl of diluted compound in the buffer was added per well, and the plate was sealed with a plate sealing film, centrifuged at 1000 g for 30 seconds, and left at room temperature for 10 minutes. An ATP solution was prepared with an enzyme reaction buffer and 2 μl of the ATP solution was added to the reaction plate (the working concentration of ATP was 20 uM). The plate was sealed with a plate sealing film, centrifuged at 1000 g for 30 seconds, and reacted at room temperature for 60 minutes. 4 μL of ADP-Glu was transferred to a 384 reaction plate, centrifuged at 1000 rpm/min for 1 min, and incubated at 25° C. for 40 min. 8 μL of the Detection solution was transferred to a 384 reaction plate, centrifuged at 1000 rpm/min for 1 min, and incubated at 25° C. for 40 min. The RLU (Relative luminescence unit) signal was read using a BMG microplate reader, and the signal intensity was used to characterize the activity level of the kinase.
The kinase activity data was expressed by comparing the kinase activity of the test compound and the blank group (containing only DMSO), and the IC50 value was obtained by curve fitting using the Prism software (GraphPad7.0).

[3] = Pharmacokinetics of single administration in mice; assay type: in vivo, Balb/c mice; design: Vz: unit not given here; conditions: for clearance / half-life / AUC / bioavailability / Cmax: female, Balb/c, mouse, plasma; for AUC: read-out: AUC; for bioavailability: po 10 mg/kg vs iv 2 mg/kg; for Cmax: read-out: Cmax
Experimental: Female Balb/c mice (weighing 18-22 g) were fasted overnight prior to the experiment. The test compound was dissolved in the vehicle, DMSO:PEG400:30% captisol:HCl=5:20:70:5 (v/v/v/v), and administered by single oral gavage at a dose of 10 mg/kg or by intravenous injection at a dose of 2 mg/kg. Blood samples were collected from the orbital venous plexus at 15 minutes, 30 minutes, and 1, 2, 4, 6, 8, and 24 h after administration. Approximately 0.08 mL of blood was collected at each time point and placed in a 1.5 mL centrifuge tube containing EDTA-2K anticoagulant. Blood samples were centrifuged (3200 g, 10 min, 4° C.) within 2 h to obtain plasma samples. Plasma samples were frozen at −70° C. to −80° C. in an ultra-low temperature freezer prior to processing. Before sample processing, the plasma samples were taken out of the freezer. After thawing at room temperature, 20 μL of each plasma sample was added into a 96-well plate, and then 120 μL of acetonitrile containing an internal standard was added to precipitate proteins. […] The supernatant was taken and mixed with an equal volume of 0.1% aqueous formic acid solution for LC-MS/MS analysis.

human HPK1 [4] = target: T1, human HPK1; test: HPK1 protein degradation assay (WB) in RAMOS cell line; assay type: cell-based; design: The RAMOS cell line was selected as the degradation cell line; endogenous in cells; host or cells: RAMOS; conditions: RAMOS cells, 16 h, Western blot
Experimental: Degradation of HPK1 proteins and DC50/Dmax were determined by the WB method in order to evaluate the in vitro degradative ability of the compound.
The RAMOS cell line was selected as the degradation cell line. Incubation Conditions: RMPI 1640 culture medium supplemented with 10% FBS, 37° C., 5% CO2.
• (1) Plating cells: in a 6 cm dish with 4 ml of the culture medium, cells plated at 2×10^6 cells/dish. • (2) Drug addition: the compound (stock solution concentration: 10 mM) was diluted with DMSO in a dilution plate, with a maximum starting concentration of 10 μM and 7 concentration gradient points (3-fold dilution). 4 μl of each diluted solution was taken, added to a dish, and incubated for 16 h. • (3) Cells were harvested, added with a lysis buffer, and centrifuged at 12000 rpm/min for 20 min. The supernatant was collected. After quantification using a BCA quantification kit, 5× loading buffer was added to denature for 10 min. • (4) 10 μg of denatured protein was added to the SDS-PAGE gel. After electrophoresis and membrane transfer, the plate was blocked with 5% BSA for 1 h, incubate with the primary antibody at 4° C. overnight. After washing off the primary antibody, the secondary antibody was added, incubated at room temperature for 1 h, and washed off.
Imaging: the membranes were scanned with a two-color fluorescence imaging system.

SMILES	EC50 [1] [nM]	IC50 (human HPK1 [2]) [nM]	clearance ([3]; iv 2 mg/kg) [mL/min/kg]	half-life ([3]; iv 2 mg/kg) [min]	AUC ([3]; iv 2 mg/kg) [ng·h/mL]	half-life ([3]; po 10 mg/kg) [min]	bioavailability [3] [%]	AUC ([3]; po 10 mg/kg) [ng·h/mL]	Cmax ([3]; po 10 mg/kg) [ng/mL]	Vz ([3]; iv 2 mg/kg)	DC50 (human HPK1 [4]) [nM]	Dmax (human HPK1 [4]) [%]
CCN1CCC(n2cc(-c3c[nH]c4ncc(-c5cnc(N6CCN(C7CCC(NC(=O)c8ccc(Cl)c(N9CCC(=O)NC9=O)c8)CC7)CC6)c(C)c5)nc34)cn2)CC1 (centres unmarked) [Compound C018]	102	1.8	–	–	–	–	–	–	–	–	–	–
[2H]C([2H])([2H])n1cc(-c2c[nH]c3ncc(-c4ccc(N5CCC(CC6CCN(C(=O)c7ccc(Cl)c(N8CCC(=O)NC8=O)c7)CC6)CC5)nc4)nc23)cn1 [Compound C160]	45.5	–	10.7	75	5330	191	29.6	7960	2460	602	12.7	88.8
CCN1CCC(n2cc(-c3c[nH]c4ncc(-c5cnc(OCCNC(=O)c6ccc(Cl)c(N7CCC(=O)NC7=O)c6)c(C)c5)nc34)cn2)CC1 [Compound C022]	95.6	1.4	–	–	–	–	–	–	–	–	55	86
CCN1CCC(n2cc(-c3c[nH]c4ncc(-c5ccc(N6CCC(CC7CCN(C(=O)c8ccc(Cl)c(N9CCC(=O)NC9=O)c8)CC7)CC6)nc5)nc34)cn2)CC1 [Compound C024]	196	2.3	–	–	–	–	–	–	–	–	2.1	77
CCn1cc(-c2c[nH]c3ncc(-c4ccc(N5CCC(CC6CCN(C(=O)c7ccc(Cl)c(N8CCC(=O)NC8=O)c7)CC6)CC5)nc4)nc23)cn1 [Compound C162]	27.3	–	12.6	42	2640	99.6	28	3690	1370	763	29.2	86.5
CCN1CCC(n2cc(-c3c[nH]c4ncc(-c5cnc(N6CCN(C7CCC(NC(=O)c8cccc(N9CCC(=O)NC9=O)c8)CC7)CC6)c(C)c5)nc34)cn2)CC1 (centres unmarked) [Compound C017]	324	0.9	–	–	–	–	–	–	–	–	–	–
CCN1CCC(n2cc(-c3c[nH]c4ncc(-c5ccc(N6CCN(C7CCC(NC(=O)c8ccc(Cl)c(N9CCC(=O)NC9=O)c8)CC7)CC6)c(C)c5)nc34)cn2)CC1 (centres unmarked) [Compound C021]	37.9	0.5	–	–	–	–	–	–	–	–	–	–
CCN1CCC(n2cc(-c3c[nH]c4ncc(-c5cnc(OCC(=O)Nc6ccc(NC7CCC(=O)NC7=O)cc6)c(C)c5)nc34)cn2)CC1 (centres unmarked) [Compound C006]	179	3.2	–	–	–	–	–	–	–	–	–	–
O=C1CCN(c2cc(C(=O)N3CCC(CC4CCN(c5ccc(-c6cnc7[nH]cc(-c8cnn(C9CC9)c8)c7n6)cn5)CC4)CC3)ccc2Cl)C(=O)N1 [Compound C170]	23.8	–	6.9	42	4830	253	27.6	6670	1390	1329	52.2	87.1
C/C(=C(Cl)\C=C/CC(=O)N1CCC(CC2CCN(c3ccc(-c4cnc5[nH]cc(-c6cnn(C)c6)c5n4)cn3)CC2)CC1)N1CCC(=O)NC1=O [Compound C110]	55.6	–	8.27	58.8	4030	201	17.7	2210	840	701.3	9.35	93
CCN1CCC(n2cc(-c3c[nH]c4ncc(-c5cnc(N6CCN(CC7CCN(C(=O)c8ccc(Cl)c(N9CCC(=O)NC9=O)c8)CC7)CC6)c(C)c5)nc34)cn2)CC1 [Compound C003]	111	3.6	–	–	–	–	–	–	–	–	–	–
